This test concerns C. albicans. In kind it is cell-based. As to the method:
Antifungal activity of a test compound is determined in vitro by obtaining the minimum inhibitory concentration (MIC) of the compound using a standard agar dilution test or a disc-diffusion test. The compound is then tested in vivo (in mice) to determine the effective dose of the test compound for controlling a systemic fungal infection. Accordingly, the compound prepared in Example 1C was tested for antifungal activity against C. albicans.

Converted amounts (≈) assume the structure as drawn. *1 amine or outer side, *2 acyl side, *3 side chain or, on linkers, in order; H or OH if unused. Where a SMILES comes first, the peptide text is derived from it. Bridges are numbered along the chain shown (N, C = ends). [ ]: non-standard residue; d: D form. The star is where a group is joined. ξ: configuration not given here. pTerphenylCO(4''-OnC5H11) = CCCCCOc1ccc(-c2ccc(-c3ccc(C(=O)*)cc3)cc2)cc1; ξOrn(4ξ-OH) = O=C(C(CC(O)CN[*:3])N[*:1])[*:2]; ξhTyr(βOH) = NC(C(=O)O)C(O)Cc1ccc(O)cc1; ξPro(3ξ-OH,4ξ-Me) = CC1CNC(C(=O)O)C1O; ξHyp = O=C(O)C1CC(O)CN1

With `CCCCCOc1ccc(-c2ccc(-c3ccc(C(=O)NC4CC(O)CNC(=O)C5C(O)C(C)CN5C(=O)CNC(=O)C(C(O)Cc5ccc(O)cc5)NC(=O)C5CC(O)CN5C(=O)CNC4=O)cc3)cc2)cc1` (stereo not shown) [Example 1C] ({pTerphenylCO(4''-OnC5H11)}-[ξOrn(4ξ-OH)]G[ξHyp][ξhTyr(βOH)]G[ξPro(3ξ-OH,4ξ-Me)]; lactam 1-C), the “minimal inhibitory concentration (MIC) against C. albicans” value came out at 0.312 µg/mL (≈ 0.306 µM).

Source of the values: patent US5629289A, “Cyclic peptide antifungal agents” (Eli Lilly and Company, priority 1995, dated 1997).
